Results reported in patent publication US11407689B2, “Black urea enhanced efficiency controllable release fertilizer compositions” (priority 2018, dated 2022).

Tests used:
rice = experiment: Greenhouse Rice Test (rice grown in 5-gallon buckets, chlorophyll by SPAD 501 meter and rough rice yield); assay type: in vivo; details: for Average of Chlorophyll Measurements: relative chlorophyll in leaves, SPAD 501 meter
Protocol: This test was conducted to compare the use of Chip Urea and Black Chip Urea to the use of ordinary granular urea for growing rice. Chip Urea, Black Chip Urea, and plain urea fertilizers were tested at Applied Chemical Technology to fertilize rice grown in 5-gallon buckets in a greenhouse. The rice was fertilized following practices used to grow rice commercially in Arkansas. These practices include fertilizing with starter fertilizers and then dry seeding the rice. Nitrogen is then applied at flooding and again when the plants enter the reproductive phase. The fertilizer is flooded into the soil when the rice plants reach the 4-leaf stage by applying the granular fertilizer to the surface and then the applying the floodwater.
The rice for the tests was grown in a climate controlled greenhouse. […] Each fertilizer was tested with five replicates placed randomly on the table. The codes for labeling the tests are given in Example 5. The bucket placement for the tests is shown in Example 6.
Top soil was purchased from Shoals Dirt near Florence, Ala. This soil was mixed and sieved using a 3 MG screen. Soil samples were taken and sent for testing to the University of Arkansas. Each five gallon bucket was filled with 39 pounds of soil and placed on the greenhouse table with no space between the buckets.
Based on the soil test results, each bucket received pre-fertilizer that included urea, triple super phosphate (TSP), potassium chloride, Epsom salts (magnesium sulfate heptahydrate), and zinc sulfate.
The TSP fertilizer was applied first. This was done by weighing out 3.58 g of TSP for each bucket and then mixing the TSP thoroughly into the top 3-4 inches of soil.
Next, the remaining starter fertilizer was applied to each bucket by making a solution of the urea, potassium chloride, zinc sulfate, and Epson salts according to the values presented in Table A of Example 5. This solution was made so that the amount of the solution needed to supply the correct amount of each nutrient to each bucket was found in 200 mL of the solution. The 200 mL of solution was then evenly poured over the surface of the soil in each bucket.
The pre-fertilizer was applied. The rice was then planted by placing 10-15 seeds on the surface of the soil and using a pencil to push the rice seed ¾ inch beneath the soil surface. The hole was filled with sand. After planting, the soil moisture was monitored. If the buckets needed to be watered, then all of the buckets are watered with the same amount of water by volume. For all of the watering throughout the tests, rain water was used. […]
The fertilizers used were products made at ACT in the pilot plant tests. […] The amounts of each fertilizer were based on the nitrogen measured in the fertilizer by LECO so that every bucket received the same amount of nitrogen. […]

[1] = system: arginine production in plants; details: cited from earlier work

| SMILES | Average of Chlorophyll Measurements (rice; July 19, 30 readings per bucket, five replicates) | Average of Chlorophyll Measurements (rice; September 21 (Friday before harvest)) | % Increase in Yield (rice; average yield per bucket versus plain urea) [%] | Average Rough Rice Yield per Bucket, Average Dry Weight at Harvest (rice; panicles dried at 50° C. for two days, same weight of N per bucket) [g] | Effectiveness in stimulating arginine production relative to urea [1] [times] |
| --- | --- | --- | --- | --- | --- |
| NC(N)=O [Urea, urea] | 46.8 | 36.4 | 0.0 | 64.42 | – |
| N#CN [acid cyanamide ion] | – | – | – | – | 20 |
